IC50 and inhibition data for 25 compounds are collected here from ChEMBL document CHEMBL1154029, “Novel derivatives of ISO-1 as potent inhibitors of MIF biological function” (Bioorg Med Chem Lett, 2009).

The target in assay [1] is T1, Macrophage migration inhibitory factor (Homo sapiens, UniProt P14174).
T1 sequence (P14174 whole entry): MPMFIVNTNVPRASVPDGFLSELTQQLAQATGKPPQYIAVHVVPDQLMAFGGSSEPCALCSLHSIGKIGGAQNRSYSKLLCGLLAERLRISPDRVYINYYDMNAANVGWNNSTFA
Kind of assay: Inhibition of dopachrome tautomerase activity of human recombinant MIF.

Assay [2] concerns the target T1, Macrophage migration inhibitory factor. Kind of assay: Inhibition of dopachrome tautomerase activity of MIF in human THP1 cells. It is filed as cell-based, THP-1.
Assay [3] concerns the target T2, Macrophage migration inhibitory factor (Homo sapiens) (UniProt P14174).
T2 sequence (whole entry): T1 sequence (P14174 whole entry)
Kind of assay: Inhibition of MIF-induced IL6 production in human PBMC at 100 uM by ELISA. Background: ELISA stands for enzyme-linked immunosorbent assay.

Assay [4] addresses T2, Macrophage migration inhibitory factor (Homo sapiens). Kind of assay: Inhibition of MIF-induced TNFalpha production in human PBMC at 100 uM by ELISA.
Assay [5] shares this target. Kind of assay: Inhibition of MIF-induced IL1-beta production in human PBMC at 100 uM by ELISA.
For assay [6], the target named is T1, Macrophage migration inhibitory factor. Kind of assay: Inhibition of spontaneous secretion/release/recognition of MIF from freshly isolated human PBMC by ELISA.

What is called IC50 is the midpoint of a concentration-inhibition curve. For orientation: inhibition means the share of the control response that was lost under treatment. A higher inhibition goes with a response far below the control.

Regarding `COc1ccc(C2=NOC(c3noc(C(F)(F)F)n3)C2)cc1F` (centres undefined), the values for the half-maximal inhibitory concentration (IC50) in assay [1] and in assay [2] were 95 µM and 100 µM, respectively.
Take `COC(=O)CC1CC(c2ccc(O)cc2)=NO1` (centres undefined): the inhibition in assay [3] turned out to be 0%; in assay [4], 25%; in assay [5] it was 25%.
In the case of `COc1ccc(C2=NOC(c3noc(CCC(=O)O)n3)C2)cc1F` (centres undefined), the figures for the IC50 in assay [1], in assay [2] and in assay [6] (read-out: IC50) were above 100 µM, 12 µM and 60 µM, respectively.
Regarding `COc1ccc(C2=NOC(c3noc(CCC(=O)NC4CCCCC4)n3)C2)cc1F` (centres undefined), the values for the half-inhibitory concentration (IC50) in assay [1], in assay [2] and in assay [6] were 9.5 µM, 30 µM and “Not Active”, respectively.
Compound `COc1ccc(C2=NOC(c3noc(C)n3)C2)cc1F` (centres undefined) gave an IC50 in assay [2] above 100 µM.
Consider `CC(C)CC(=O)NCCC1CC(c2ccc(O)c(F)c2)=NO1` (centres undefined), for which the results for the 50% inhibitory concentration (IC50) in assay [1], in assay [2] and in assay [6] (read-out: IC50) were 22 µM, 29 µM and 20 µM, respectively. In addition, the values for the inhibition in assay [3], in assay [4] and in assay [5] were 47%, 53% and 58%, respectively.
Turning to `COc1ccc(C2=NOC(c3noc(-c4ccccc4N(C)C(=O)O)n3)C2)cc1F` (centres undefined), the IC50 in assay [2] is above 100 µM.
As for `Cc1nc(C2CC(c3ccc(O)c(F)c3)=NO2)no1` (centres undefined), the IC50 is above 100 µM in assay [1] and 60 µM in assay [2].
With `CC(C)CC(=O)NCC1CC(c2ccc(O)c(F)c2)=NO1` (centres undefined), in assay [2], the concentration for half-maximal inhibition (IC50) was above 100 µM.
With `CC(C)(C)C(=O)NCCC1CC(c2ccc(O)c(F)c2)=NO1` (centres undefined), the IC50 in assay [1] came out at 22 µM; in assay [2] it was 28 µM; in assay [6] (read-out: IC50) it was 15 µM. Besides, the inhibition in assay [3] worked out at 39%; in assay [4] it was 40%; in assay [5], 50%.
Turning to `O=C(CCc1nc(C2CC(c3ccc(O)c(F)c3)=NO2)no1)NC1CCCCC1` (centres undefined), the half-inhibitory concentration (IC50) is above 100 µM in assay [1], 25 µM in assay [2] and “Not Active” in assay [6].
Consider `COc1ccc(C2=NOC(Cc3noc(C(F)(F)F)n3)C2)cc1F` (centres undefined), for which the IC50 was 55 µM in assay [1] and above 100 µM in assay [2].
`O=C1c2ccccc2C(=O)N1CCCC1CC(c2ccc(O)c(F)c2)=NO1` (centres undefined): the IC50 in assay [1] was 7 µM; in assay [2], 2 µM; in assay [6], “Not Active”.
In the same order, the values of `O=C1c2ccccc2C(=O)N1CC1CC(c2ccc(O)c(F)c2)=NO1` (centres undefined) are 36 µM, 29 µM and “Not Active”.
In the case of `Oc1ccc(C2=NOC(Cc3noc(C(F)(F)F)n3)C2)cc1F` (centres undefined), the inhibition in assay [3] is 33%; in assay [4], 34%; in assay [5] it was 46%.
Take `O=C(NCCC1CC(c2ccc(O)c(F)c2)=NO1)c1ccc(F)cc1` (centres undefined): the half-inhibitory concentration (IC50) in assay [1] worked out at 20 µM; in assay [2] it was 15 µM; in assay [6] (read-out: IC50) it was 10 µM. The inhibition in assay [3] came out at 54%; in assay [4] it was 56%; in assay [5] it was 52%.
The compound `CN(C)C(=O)NCC1CC(c2ccc(O)c(F)c2)=NO1` (centres undefined) displayed an IC50 in assay [2] above 100 µM.
On the same count and under the same terms, the figure for `CC(C)(C)C(=O)NCC1CC(c2ccc(O)c(F)c2)=NO1` (centres undefined) is above 100 µM.
Regarding `Oc1ccc(C2=NOC(c3noc(C(F)(F)F)n3)C2)cc1F` (centres undefined), the half-maximal inhibitory concentration (IC50) was above 100 µM in assay [1] and 60 µM in assay [2].
Turning to `COc1ccc(C2=NOC(c3noc(-c4cccc(OC)c4OC)n3)C2)cc1F` (centres undefined), the concentration for half-maximal inhibition (IC50) in assay [1] was 32 µM; in assay [2], 20 µM; in assay [6] it was “Not Active”.
On to `O=C1CCC(=O)N1CCC1CC(c2ccc(O)c(F)c2)=NO1` (centres undefined), for which the IC50 came out at 50 µM in assay [1], 15 µM in assay [2] and 20 µM in assay [6] (read-out: IC50). Also, the values for the inhibition in assay [3], in assay [4] and in assay [5] were 14%, 39% and 27%, respectively.
Regarding `COC(=O)CCc1nc(C2CC(c3ccc(O)c(F)c3)=NO2)no1` (centres undefined), the IC50 was above 100 µM in assay [1], 50 µM in assay [2] and “Not Active” in assay [6].
In the same order, the values of `Oc1ccc(C2=NOC(c3noc(-c4cccc(O)c4O)n3)C2)cc1F` (centres undefined) are above 100 µM, 19 µM and “Not Active”.
Regarding `O=C1c2ccccc2C(=O)N1CCC1CC(c2ccc(O)c(F)c2)=NO1` (centres undefined), the results for the IC50 in assay [1], in assay [2] and in assay [6] (read-out: IC50) were 0.8 µM, 0.5 µM and 1.5 µM, respectively. In addition, the inhibition in assay [3] turned out to be 22%; in assay [4], 31%; in assay [5], 22%.
As to `O=C(NCCC1CC(c2ccc(O)c(F)c2)=NO1)C(F)(F)F` (centres undefined), the figures for the 50% inhibitory concentration (IC50) in assay [1], in assay [2] and in assay [6] (read-out: IC50) were above 100 µM, 49 µM and 15 µM, respectively. Besides, the inhibition turned out to be 49% in assay [3], 53% in assay [4] and 66% in assay [5].
